# Key:
# CYP2D6 = biological target: T1, CYP2D6 (Homo sapiens, UniProt P10635); test: CYP inhibition assay in human liver microsome; format: in vitro ADME; settings: human liver microsomes, probe dextromethorphan, dextromethorphan substrate, percentage inhibition <0: not or weak inhibitor, read-out: CYP 2D6 inhibition %@10 μM
# T1 construct: tissue BD-Gentest 452117; host or cells: human liver microsomes
# Description: The compounds would be desirable to have minimal DDI liabilities. Therefore, the effects of compounds of formula (I) or (Ia) on CYP2D6 are determined.
# This is a high throughput screening assay used for assessment of reversible inhibition of CYP2D6 activity of test compounds in human liver microsome (HLM) in early discovery stage.
# 10 mM DMSO stock solutions of test compounds were diluted in DMSO to generate 2 mM intermediate stock solution. 250 nL of intermediate stock solution were transferred in duplicate into 3 separate 384 well microtitre plates (assay-ready plates). A mixture of HLM and each substrate was made up. 45 μL of HLM substrate mix was then transferred to each well of an assay ready plate and mixed. The negative (solvent) and positive control (standard inhibitor for CYP 2D6) were included in each assay ready plate. The assay ready plate was warmed to 37° C. in an incubator over 10 minutes. 5 μL pre-warmed NADPH regenerating system was added to each incubation well to start the reaction. Final incubation volume was 50 μL. The assay plate then was placed back in the 37° C. incubator. After 10 minutes incubation, incubates were quenched by addition of 50 μL 100% acetonitrile containing internal standards (20 ng/mL D3-Dextrorphan). The supernatants were collected for RapidFire/MS/MS analysis.
# RapidFire online solid phase extraction/sample injection system (Agilent) coupled with API4000 triple quadrupole mass spectrometer (AB Sciex) were used for sample analysis. The mobile phase composed of acetonitrile and water supplemented with 0.1% formic acid. A C4 solid phase extraction cartridge is used for sample separation. MS detection is achieved in positive ion MRM mode.
# Data analysis Peak areas for substrate, metabolite and internal standard are determined using the RapidFire integrator software (version 3.6.12009.12296). Peak area ratios (PAR) of metabolite and internal standard (stable-labelled metabolite) are then calculated. The measurement window for each experiment is then defined:
# PAR (0% activity), average PAR for all incubations containing concentrated inhibitor; Par (100% activity), average PAR for all incubations containing no inhibitor (DMSO controls);
# % Activity (test inhibitor)=
# =[PAR(test inhibitor)-PAR(0% activity)]/[PAR(100% activity)-PAR(0% activity)];
# % Inhibition (test inhibitor)=100-% Activity (test inhibitor).
# hTLR9 = biological target: T2, hTLR9 (Homo sapiens, UniProt Q9NR96); set-up: host or cells: HEK; settings: disclosed in US20150105370; read-out: HEK/hTLR9 IC50; cited from earlier work
# T2 sequence (Q9NR96 26-1032): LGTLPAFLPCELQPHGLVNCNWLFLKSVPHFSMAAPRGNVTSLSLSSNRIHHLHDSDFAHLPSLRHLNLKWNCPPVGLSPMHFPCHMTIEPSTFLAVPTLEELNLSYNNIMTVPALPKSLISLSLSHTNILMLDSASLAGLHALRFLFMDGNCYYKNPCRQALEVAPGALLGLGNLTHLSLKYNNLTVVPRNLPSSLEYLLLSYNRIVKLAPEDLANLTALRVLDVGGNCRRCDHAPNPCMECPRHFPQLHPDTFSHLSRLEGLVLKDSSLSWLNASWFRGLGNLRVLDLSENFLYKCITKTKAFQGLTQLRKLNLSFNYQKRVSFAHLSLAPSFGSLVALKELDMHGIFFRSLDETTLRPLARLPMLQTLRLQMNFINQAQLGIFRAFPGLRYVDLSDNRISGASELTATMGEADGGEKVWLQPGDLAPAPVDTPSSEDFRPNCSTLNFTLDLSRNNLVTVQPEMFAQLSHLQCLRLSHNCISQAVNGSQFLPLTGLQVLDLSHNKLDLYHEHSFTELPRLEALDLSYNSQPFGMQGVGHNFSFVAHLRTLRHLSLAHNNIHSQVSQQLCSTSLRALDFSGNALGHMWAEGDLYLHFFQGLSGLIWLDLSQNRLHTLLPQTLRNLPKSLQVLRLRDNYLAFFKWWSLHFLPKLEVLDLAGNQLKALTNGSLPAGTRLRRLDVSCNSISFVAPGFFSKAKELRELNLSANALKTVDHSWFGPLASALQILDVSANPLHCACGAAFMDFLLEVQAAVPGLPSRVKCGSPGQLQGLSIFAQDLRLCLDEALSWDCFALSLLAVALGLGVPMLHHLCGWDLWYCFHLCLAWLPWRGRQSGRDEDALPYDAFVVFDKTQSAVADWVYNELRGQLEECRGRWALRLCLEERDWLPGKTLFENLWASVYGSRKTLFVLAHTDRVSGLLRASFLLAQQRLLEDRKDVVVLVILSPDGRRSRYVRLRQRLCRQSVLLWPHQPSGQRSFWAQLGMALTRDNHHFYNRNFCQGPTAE
# hERG channel = biological target: T3, hERG channel (Homo sapiens, UniProt Q12809); test: hERG channel inhibition assay (patch-clamp, CHOhERG cells); format: cell-based; settings: safety ratio;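 for hERG IC20/TLR7 IC50: ratio above 30 indicates an adequate safety window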;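 for hERG IC20/TLR8 IC50: ratio above 30 indicates an adequate safety window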
# T3 construct: expressed in transfected cells; host or cells: CHO (Chinese hamster ovary), CHOhERG
# T3 sequence (Q12809 whole entry): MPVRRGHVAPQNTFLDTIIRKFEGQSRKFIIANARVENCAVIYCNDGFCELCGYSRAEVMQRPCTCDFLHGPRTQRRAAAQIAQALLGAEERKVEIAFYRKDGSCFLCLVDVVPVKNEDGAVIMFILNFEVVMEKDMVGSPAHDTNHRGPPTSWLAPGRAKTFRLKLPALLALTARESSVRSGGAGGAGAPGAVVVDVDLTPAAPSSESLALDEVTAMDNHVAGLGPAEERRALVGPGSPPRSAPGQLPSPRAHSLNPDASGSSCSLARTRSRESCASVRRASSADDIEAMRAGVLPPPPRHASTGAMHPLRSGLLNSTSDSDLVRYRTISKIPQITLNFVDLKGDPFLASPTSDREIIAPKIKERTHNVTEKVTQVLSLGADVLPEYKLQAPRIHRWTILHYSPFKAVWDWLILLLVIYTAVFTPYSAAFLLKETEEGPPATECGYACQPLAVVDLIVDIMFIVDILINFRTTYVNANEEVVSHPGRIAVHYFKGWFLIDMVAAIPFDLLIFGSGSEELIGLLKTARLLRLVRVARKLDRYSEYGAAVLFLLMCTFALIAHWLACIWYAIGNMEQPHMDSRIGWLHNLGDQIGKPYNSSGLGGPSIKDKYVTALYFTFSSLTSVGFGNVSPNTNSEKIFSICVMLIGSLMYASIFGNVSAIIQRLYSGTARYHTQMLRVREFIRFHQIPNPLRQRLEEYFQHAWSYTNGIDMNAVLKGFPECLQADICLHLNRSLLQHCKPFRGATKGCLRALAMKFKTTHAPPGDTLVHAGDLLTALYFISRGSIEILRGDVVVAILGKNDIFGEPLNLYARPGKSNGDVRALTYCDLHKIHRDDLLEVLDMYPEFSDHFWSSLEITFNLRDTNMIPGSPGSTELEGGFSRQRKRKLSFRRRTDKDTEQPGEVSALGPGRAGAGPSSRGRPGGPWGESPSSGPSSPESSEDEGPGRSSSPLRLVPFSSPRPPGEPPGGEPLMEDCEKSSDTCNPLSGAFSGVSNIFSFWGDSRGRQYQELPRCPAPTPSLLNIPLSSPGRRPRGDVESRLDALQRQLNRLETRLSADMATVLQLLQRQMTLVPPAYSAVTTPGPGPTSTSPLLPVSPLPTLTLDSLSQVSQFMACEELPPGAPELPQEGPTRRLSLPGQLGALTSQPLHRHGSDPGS
# Description: hERG channel inhibition assay:
# The hERG K^+ channels were cloned in humans and stably expressed in a CHO (Chinese hamster ovary) cell line. CHOhERG cells were used for patch-clamp (voltage-clamp, whole-cell) experiments. Cells were stimulated by a voltage pattern to activate hERG channels and conduct IKhERG currents (rapid delayed outward rectifier potassium current of the hERG channel). After the cells were stabilized for a few minutes, the amplitude and kinetics of IKhERG were recorded at a stimulation frequency of 0.1 Hz (6 bpm). Thereafter, the test compound was added to the preparation at increasing concentrations. For each concentration, an attempt was made to reach a steady-state effect, usually, this was achieved within 3-10 min at which time the next highest concentration was applied. The amplitude and kinetics of IKhERG are recorded in each concentration of the drug which were compared to the control values (taken as 100%). (references: Redfern W S, Carlsson L, Davis A S, Lynch W G, MacKenzie I, Palethorpe S, Siegl P K, Strang I, Sullivan A T, Wallis R, Camm A J, Hammond T G. 2003; Relationships between preclinical cardiac electrophysiology, clinical QT interval prolongation and torsade de pointes for a broad range of drugs: evidence for a provisional safety margin in drug development. Cardiovasc. Res. 58:32-45, Sanguinetti M C, Tristani-Firouzi M. 2006; hERG potassium channels and cardiac arrhythmia. Nature 440:463-469, Webster R, Leishman D, Walker D. 2002; Towards a drug concentration effect relationship for QT prolongation and torsades de pointes. Curr. Opin. Drug Discov. Devel. 5:116-26).
# [1] = Human microsome stability assay; format: in vitro ADME; settings: 1 μM test compound, 0.5 mg/mL liver microsomal protein, 37° C.
# Description: Human microsome stability assay
# The human microsomal stability assay is used for early assessment of metabolic stability of a test compound in human liver microsomes.
# Human liver microsomes (Cat.NO.: 452117, Corning, USA;Cat.NO.:H2610, Xenotech, USA) were preincubated with test compound for 10 minutes at 37° C. in 100 mM potassium phosphate buffer, pH 7.4. The reactions were initiated by adding NADPH regenerating system. The final incubation mixtures contained 1 μM test compound, 0.5 mg/mL liver microsomal protein, 1 mM MgCl2, 1 mM NADP, 1 unit/mL isocitric dehydrogenase and 6 mM isocitric acid in 100 mM potassium phosphate buffer, pH 7.4. After incubation times of 0, 3, 6, 9, 15 and 30 minutes at 37° C., 300 μL of cold acetonitrile (including internal standard) was added to 100 μL incubation mixture to terminate the reaction. Following precipitation and centrifugation, the amount of compound remaining in the samples were determined by LC-MS/MS. Controls of no NADPH regenerating system at zero and 30 minutes were also prepared and analyzed.
# T1 sequence (P10635 whole entry): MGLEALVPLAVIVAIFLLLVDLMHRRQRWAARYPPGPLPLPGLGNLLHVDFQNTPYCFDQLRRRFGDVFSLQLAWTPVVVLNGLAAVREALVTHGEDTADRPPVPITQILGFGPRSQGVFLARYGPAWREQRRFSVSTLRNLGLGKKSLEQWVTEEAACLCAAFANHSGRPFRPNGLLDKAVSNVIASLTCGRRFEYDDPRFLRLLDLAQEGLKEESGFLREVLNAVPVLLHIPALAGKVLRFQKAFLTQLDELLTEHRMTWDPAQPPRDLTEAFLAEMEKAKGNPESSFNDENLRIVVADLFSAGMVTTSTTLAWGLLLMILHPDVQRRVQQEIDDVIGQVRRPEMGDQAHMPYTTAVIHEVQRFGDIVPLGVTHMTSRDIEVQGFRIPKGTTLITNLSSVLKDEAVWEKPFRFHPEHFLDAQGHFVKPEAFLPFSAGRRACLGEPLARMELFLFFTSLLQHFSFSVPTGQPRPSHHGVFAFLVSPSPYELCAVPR
SMILES,IC50 (hTLR9) [µM],hERG IC20/TLR7 IC50 (hERG channel),hERG IC20/TLR9 IC50 (hERG channel),Clearance of Human microsome [1] [mL/min/kg],also measured
Cc1cc(N2CCN(C[C@H]3CN(c4ccc(C#N)n5nccc45)C[C@@H](C)O3)C(Cc3ccccc3)C2)cc(C)n1 (some centres unmarked) [Example 39],–,–,–,–,"inhibition at 10 min, 10 μM (CYP2D6): 7.5%"
"C[C@@H]1CN(c2ccc(C#N)c3ncccc23)C[C@H](CN2CCN(c3ccccc3)CC2)O1 [ER-887258, reference compound]",> 2,8.1,0.3,–,–
Cc1cc(N2C[C@@H](O)[C@H](NC[C@H]3CN(c4ccc(C#N)c5ncccc45)C[C@@H](C)O3)C2)cc(CO)n1 [Example 31],–,–,–,7.61,–
C[C@@H]1CN(c2ccc(C#N)c3ncccc23)C[C@H](CN2CC[C@@H](NC(=O)c3ccccc3)C2)O1 [ER-894544],> 6.2,–,–,–,–
Cc1cc(N2CC[C@@H](O)[C@H](NC[C@H]3CN(c4ccc(C#N)c5ncccc45)C[C@@H](C)O3)C2)cc(CO)n1 [Example 27],–,–,–,7.67,–
"C[C@@H]1CN(c2ccc(C#N)c3ncccc23)C[C@H](CN2CCN(c3ccncc3)CC2)O1 [ER-888286, reference compound]",> 2,0.3,0.2,–,–
"COc1ccc(N2CCN(C[C@H]3CN(c4ccc(C#N)c5ncccc45)C[C@@H](C)O3)CC2)cc1 [Example R1, 5-[(2S,6R)-2-[[4-(4-methoxyphenyl)piperazin-1-yl]methyl]-6-methyl-morpholin-4-yl]quinoline-8-carbonitrile, reference compound]",–,9.3,0.1,10.84,hERG IC20/TLR8 IC50 (hERG channel): 6.2
"C[C@@H]1CN(c2ccc(C#N)c3ncccc23)C[C@H](CN2CCN(c3ccc(Cl)cc3)CC2)O1 [Example R2, 5-[(2S,6R)-2-[[4-(4-chlorophenyl)piperazin-1-yl]methyl]-6-methyl-morpholin-4-yl]quinoline-8-carbonitrile, reference compound]",–,1.3,0.0,–,hERG IC20/TLR8 IC50 (hERG channel): 0.8
C[C@@H]1CN(c2ccc(C#N)c3ncccc23)C[C@H](CN2CC(NS(=O)(=O)c3ccc(F)cc3)C2)O1 [ER-894155],> 10,–,–,–,–
Cc1cc(N2CC[C@H](NC[C@H]3CN(c4ccc(C#N)c5ncccc45)C[C@@H](C)O3)[C@@H](O)C2)cc(CO)n1 [Example 26],–,–,–,7.72,–
Cc1nn(C)cc1S(=O)(=O)NC1CCN(C[C@H]2CN(c3ccc(C#N)c4ncccc34)C[C@@H](C)O2)CC1 [ER-894160],> 10,–,–,–,–
"C[C@@H]1CN(c2ccc(C#N)c3ncccc23)C[C@H](CN2CCN(c3ccccn3)CC2)O1 [ER-888285, reference compound]",> 2,8.4,0.5,–,–
